From US20220227765A1, “PYRIDO-INDOLE ANALOGUES AS GPX4 INHIBITORS” (Ferro Therapeutics, Inc., priority 2019, published 2022)
Values after ≈ are worked out from the molar mass of the structure shown. Read-outs that look alike come from different tables or passages of the source.

How the values were obtained:
[1] = Rat hepatocyte metabolic stability; type: in vitro ADME; details: for half-life / hepatocyte CLint: rat hepatocytes; for half-life: read-out: rat hepatocytes T1/2; for hepatocyte CLint: read-out: rat hepatocytes h Clintr (μL/min/10^6 cells)
786-O = assay: Cell proliferation (Alamar Blue) assay, 786-O; type: cell-based, human
Method in brief: (§1)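 Alamar Blue fluorescence (540 nm excitation, 590 nm emission, 1.5 h reagent incubation) measured viability after 24 h compound exposure at 37° C./5% CO2. Compounds spanned 10-0.0005 μM in 3-fold steps with 1% final DMSO, on cells pre-seeded 16-24 h at 5000/well. IC50 values were derived by variable-slope dose-response fitting.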

SJSA-1 = assay: Cell proliferation (Alamar Blue) assay, SJSA-1; type: cell-based, human
Method in brief: as §1

[2] = Rat IV pharmacokinetics (2 mg/kg); type: in vivo; details: male, SD, plasma; for AUC(0-t): read-out: Rat IV-PK AUC (0-t); for clearance: read-out: Rat IV-PK CL; for half-life: read-out: Rat IV-PK T1/2; for Vd: read-out: Rat IV-PK Vd
Excerpt: Institutional Animal Ethical Committee (IAEC) of Jubilant Biosys (IAEC/JDC/2019/188R (for Mice) and IAEC/JDC/2019/189R (for Rat) nominated by CPCSEA (Committee for the Purpose of Control and Supervision of Experiments on Animals) approved the mice and rat pharmacokinetic experiments. Male Balb/c mice (˜6-8 weeks old with body weight range of 22-25 g) and male SD rats (6-8 weeks old with body weight range of 200-250 g) were procured from Vivo Biotech, Hyderabad, India. Animals were quarantined in Jubilant Biosys Animal House for a period of 7 days with a 12:12 h light: dark cycles, and prior to the study the animals were stratified as per body weight.
B) Procedure for rat: Intravenous and oral pharmacokinetics study was done at a dose 2 and 10 mg/kg at dose volume of 2 and 10 mL/Kg. Serial blood sampling was done and at each time point (˜200 μL) were collected from retro-orbital plexus at 0.083 (Only for IV), 0.25, 0.5, 1, 2, 4, 8, 10 (only for PO) and 24 h. Blood samples were collected in tubes containing K2.EDTA as anticoagulant and centrifuged for 5 min at 10,000 rpm in a refrigerated centrifuge (Biofuge, Heraeus, Germany) maintained at 4° C. for plasma separation.
Group I (IV) received test compound intravenously by tail vein at 2 mg/Kg in solution formulation prepared using 30% Kolliphore EL in WFI; dose volume: 2 mL/Kg; strength: 1 mg/mL.
Blood concentration-time data of test compound was analyzed by non-compartmental method using Phoenix WinNonlin Version 8.1.

[3] = Kinetic solubility (PBS, pH 7.4); type: physicochemical; details: aqueous buffer, kinetic from dmso stock
Human blood stability = type: in vitro ADME
A431 = assay: Cell proliferation (Alamar Blue) assay, A431; type: cell-based, human; details: Homo sapiens, A-431, 24 h
Method in brief: as §1

[4] = Human hepatocyte metabolic stability; type: in vitro ADME; details: for half-life / hepatocyte CLint: human hepatocytes; for half-life: read-out: human hepatocytes T1/2; for hepatocyte CLint: read-out: human hepatocytes h Clintr (μL/min/10^6 cells)
[5] = Mouse plasma protein % unbound (ultracentrifuge method); type: in vitro ADME; details: for Mouse Plasma Protein % Unbound (Ultracentrifuge method, 4 h at 37° C.): Table B-6
[6] = Equilibrium solubility at different pHs and with SBECD; type: physicochemical; details: thermodynamic from solid
[7] = CD-1 Mouse Whole Blood Stability Assay; type: in vitro ADME; details: incubation at 37° C.
in vitro = details: CD-1, mouse, plasma
[8] = CD-1, mouse, plasma, 2 μM
[9] = Homo sapiens, 786-0, 24 h, Table B-3, 786-O cells
[10] = Homo sapiens, SJSA-1, 24 h, Table B-3, head prints SJSB-1, 24 h, read-out: IC50 (μM) SJSB-1
[11] = aqueous buffer, pH 3.0, read-out: Eq. solubility pH 3.0
[12] = aqueous buffer, pH 3.0 PBS buffer, read-out: Eq. solubility pH 3.0 PBS buffer
[13] = aqueous with cosolvent or surfactant or cyclodextrin, 20% SBECD (sulfobutyl ether cyclodextrin), read-out: Eq. solubility 20% SBECD

rat hepatocytes extr. Ratio [1] | rat hepatocytes % met @ 180 min [1] | half-life [1] | hepatocyte CLint [1] | IC50 (786-O; [9]) | IC50 (SJSA-1; [10]) | solubility kinetic ([3]; Table B-4) | IC50 (A431; Table B-3, A431 cells) | human hepatocytes extr. Ratio [4] | human hepatocytes % met @ 180 min [4] | half-life [4] | hepatocyte CLint [4] | Mouse Plasma Protein % Unbound (Ultracentrifuge method, 4 h at 37° C.) [5] | CD-1 Mouse Whole Blood Stability % Remaining ([7]; Table B-6, 0 min) | CD-1 Mouse Whole Blood Stability % Remaining ([7]; Table B-6, 30 min) | CD-1 Mouse Whole Blood Stability % Remaining ([7]; Table B-6, 60 min) | Compound | further results
0.7 | 72% | 1.78 h | 26 µL/min/1e6 cells | 0.001 µM | 0.001 µM | < 1 µM | 6.7 µM | 0.13 | 3.5% | 41.1 h | 1.1 µL/min/1e6 cells |  |  |  |  | O=C(CCl)N1[C@@H](CC2CC2)Cc2c([nH]c3ccccc23)[C@@H]1c1ccc(NC23CC4CC(CC(C4)C2)C3)cc1 [Compound B-36] | AUC(0-t) [2]: 431 ng·h/mL; clearance [2]: 87 mL/min/kg; half-life [2]: 0.5 h; Vd [2]: 3.5 L/kg; human blood stability % remaining (Human blood stability; 15 min): ~100%_15; human blood stability % remaining (Human blood stability; 30 min): 96%_30; human blood stability % remaining (Human blood stability; 45 min): 82%_45; human blood stability % remaining (Human blood stability; 60 min): 77%_60; human blood stability % remaining (Human blood stability; 120 min): 51%_120
 |  |  |  | 0.03 µM | 0.052 µM |  | > 10 µM |  |  |  |  | Not stable | 100.0% | 1.9% | 0.5% | C#CC(=O)N1[C@@H](CCCC)Cc2c([nH]c3c(F)cc(F)cc23)[C@@H]1c1cccnc1 [Compound B-30] | solubility [6, 11]: 700 µg/mL (≈ 1780 µM); solubility [6, 12]: 490 µg/mL (≈ 1250 µM); solubility [6, 13]: 240 µg/mL (≈ 610 µM); solubility kinetic ([3]; Table B-7): < 1 µM
 |  |  |  |  |  |  |  |  |  |  |  |  |  |  |  | C[C@H]1Cc2c([nH]c3ccccc23)[C@](C)(c2ccc(F)cc2)N1C(=O)CCl [Compound C-38] | IC50 (786-O; Table C-3, 786-O cells, 24 h): 0.437 µM; fraction unbound at 4 h ([5]; mouse, plasma, Table C-4, 4 h at 37° C.): 0.105; IC50 (SJSA-1; Table C-3, SJSA-1 cells, 24 h, read-out: IC50 (μM) SJSA-1): 0.332 µM; IC50 (A431; Table C-3, A431 cells): 2.95 µM; CD-1 Mouse Whole Blood Stability % Remaining ([7]; Table C-4, 0 min): 100.0%; CD-1 Mouse Whole Blood Stability % Remaining ([7]; Table C-4, 30 min): 74.4%; CD-1 Mouse Whole Blood Stability % Remaining ([7]; Table C-4, 60 min): 61.0%
 |  |  |  | 0.507 µM | 0.431 µM |  | > 10 µM |  |  |  |  | Not stable | 100.0% | 4.0% | 0.5% | C#CC(=O)N1[C@@H](CCCC)Cc2c([nH]c3c(F)cc(F)cc23)[C@@H]1c1cncs1 [Compound B-23] | 
0.64 | 74% | 2.28 h | 20 µL/min/1e6 cells | 0.001 µM | 0.004 µM | < 1 µM | 4.6 µM | 0.58 | 38% | 4.5 h | 10 µL/min/1e6 cells |  |  |  |  | C#CC(=O)N1[C@@H](CC2CC2)Cc2c([nH]c3ccccc23)[C@@H]1c1ccc(NC23CC4CC(CC(C4)C2)C3)cc1 [Compound B-37] | AUC(0-t) [2]: 346 ng·h/mL; clearance [2]: 115 mL/min/kg; half-life [2]: 3.3 h; Vd [2]: 32 L/kg
0.94 | 100% | 0.267 h | 174 µL/min/1e6 cells | 0.009 µM | 0.011 µM | 3 µM (≈ 1.18 µg/mL) | 6.6 µM | 0.93 | 97% | 0.467 h | 99 µL/min/1e6 cells | Not stable | 100.0% | 2.1% | 0.2% | C#CC(=O)N1[C@@H](CCCC)Cc2c([nH]c3c(F)cc(F)cc23)[C@@H]1c1ccccn1 [Compound B-31] | solubility [6, 11]: 15 µg/mL (≈ 38.1 µM); solubility [6, 12]: 4 µg/mL (≈ 10.2 µM); solubility [6, 13]: 47 µg/mL (≈ 119 µM); human blood stability % remaining (Human blood stability; 15 min): 9.7%_15; human blood stability % remaining (Human blood stability; 30 min): 0%_30; human blood stability % remaining (Human blood stability; 45 min): 0%_45; human blood stability % remaining (Human blood stability; 60 min): 0%_60; human blood stability % remaining (Human blood stability; 120 min): 0%_120
 |  |  |  |  |  |  |  |  |  |  |  |  |  |  |  | C#CC(=O)N1[C@@H](CCCC)Cc2c([nH]c3c(F)cc(F)cc23)[C@@H]1C1CCCCC1 [Compound B-56] | fraction unbound at 2 μM (in vitro): 0.11; % Bound [8]: 89.0%; % Remaining (t = 4 hr at 37 C.) ([8]; 4 h): 56.7%
